Assay results as given in patent US20050142231A1, “Pharmaceutical activity and manufacturing method of the five-plant compound hypolipemic products” (priority 2003, published 2005).

Test system: lecithin cholesterol acyltransferase (LCAT)
Test: Effect upon activity of lecithin cholesterol acyltransferase in rats suffering from hyperlipemia
Format: in vivo, rat
Description: The original lecithin and cholesterol in the serum were used as substrates, which were kept warm for some time. Because of the effect of lecithin cholesterol acyltransferase (LCAT), cholesterolester (CE) in serum was increased, but free cholesterol (FC) decreased. Then cholesterol was oxidized by cholesterol oxidase and hydrogen peroxide was produced. The latter reacted with […] and phenol under the action of horseradish peroxidase to produce red quinone imide, which can be used for colorimetric analysis to determine the content of FC. The decrease in FC, ie, the esterification of cholesterol can indicate the activity of LCAT in magnitude. […]
(2) Two portions of 0.1 ml fresh serum were taken from each animal of each group and were preheated in water bath at 37° C. for five minutes, to one portion of which 3 ml cholesterol enzyme-linked reagent application solution was added (30 ml enzyme reaction solution for 1 ml cholesterol enzyme-linked reagent), mixed thoroughly and heated in water bath at 37° C. for 15 minutes while blank control tube and standard tube (0.05 ml standard cholesterol absolute alcohol solution) were made. […] OD was read and FC content was calculated in terms of Beer's law, which was the serum FC content before reaction. […] Then FC content was determined as above, expressed as OD, which was the serum FC content after reaction. […]

## CCOC(=O)C(C)(C)Oc1ccc(Cl)cc1 [Astromid-s]
0.13 g/kg
  Effect on activity of LCAT (in words): not noticeable
Hyperlipemia rat serum, dose 0.13 g/kg for seven days, x ± SD
  LCAT activity (TC esterification nmol/ml/h): 536 ± 277 nmol/mL/h
